The values below come from article PMC11242892, “Ceanothanes Derivatives as Peripheric Anionic Site and Catalytic Active Site Inhibitors of Acetylcholinesterase: Insights for Future Drug Design” (International Journal of Molecular Sciences, 2024).

One test has as its target T1, PAS of EeAChE (Electrophorus electricus, UniProt O42275).
T1 construct: purchased Sigma-Aldrich
Put plainly: Propidium iodide displacement assay. Type of test: binding. The note with it: five units EeAChE, 1 µM propidium iodide solution, triplicate. On the procedure:
By interacting with soluble β-amyloid peptides and facilitating their aggregation, the AChE peripheral anionic site (PAS) at the gorge’s edge contributes to AChE’s pro-aggregation capacity toward β-amyloid. […] The potential ability of compounds to bind PAS and thus block the pro-aggregation activity of AChE is possible to evaluate through competitive propidium displacement from the PAS of AChE.
The percentage inhibition was calculated by the following expression: 100 − (IFi/IF0 × 100), where IF1 and IF0 correspond to fluorescence intensities with and without the test compound, respectively. Each assay was carried out in triplicate independent experiments.

Test [1] has as its target T2, acetylcholinesterase (AChE from Electrophorus electricus) (Electrophorus electricus, UniProt O42275).
T2 construct: purchased Sigma-Aldrich
Put plainly: Ellman assay, AChE inhibitory activity. Type of test: biochemical. The note with it: IC50 ± SEM, Ellman's assay. How it is done: The Ellman assay was used to test acetylcholinesterase (AChE from Electrophorus electricus) inhibition activity. A mixture of the DTNB (125 µL), enzyme solution (25 µL), and compound solution (25 µL) was prepared and incubated at room temperature for 20 min. All the assays were under 0.1 M KH2PO4/K2HPO4 buffer, pH 8.0. The substrate was added to start the enzymatic reaction. […] All measurements were performed fivefold as triplicate. The compounds were assayed in a dilution interval of 15 to 500 µg/mL.
(In Ellman's method for cholinesterases, released thiocholine reacts with DTNB.)

Test [2] has as its target T2, acetylcholinesterase (AChE from Electrophorus electricus). Put plainly: Kinetic characterization of AChE inhibition (Lineweaver–Burk). The note with it: for Vmax: Lineweaver–Burk; for α: alpha calculated from Lineweaver–Burk plots; for type of inhibition: from Lineweaver–Burk plots and alpha. Type of test: biochemical. On the procedure: To investigate the inhibition mechanism of the tested compounds on AChE, a kinetic analysis was performed. The experiments were carried out using a combination of four substrate concentrations and three inhibitor concentrations with the aim to obtain a double reciprocal plot (Lineweaver–Burk), in which each point is the mean of three different experiments. A parallel control with no inhibitor in the mixture allowed adjusted activities to be measured at various times.

“And” between values parts separate entries of the source, which are not always exact repeats. Identical values can stand only once. “Also recorded” adds a separate entry of the source.

T2 sequence (O42275 24-633): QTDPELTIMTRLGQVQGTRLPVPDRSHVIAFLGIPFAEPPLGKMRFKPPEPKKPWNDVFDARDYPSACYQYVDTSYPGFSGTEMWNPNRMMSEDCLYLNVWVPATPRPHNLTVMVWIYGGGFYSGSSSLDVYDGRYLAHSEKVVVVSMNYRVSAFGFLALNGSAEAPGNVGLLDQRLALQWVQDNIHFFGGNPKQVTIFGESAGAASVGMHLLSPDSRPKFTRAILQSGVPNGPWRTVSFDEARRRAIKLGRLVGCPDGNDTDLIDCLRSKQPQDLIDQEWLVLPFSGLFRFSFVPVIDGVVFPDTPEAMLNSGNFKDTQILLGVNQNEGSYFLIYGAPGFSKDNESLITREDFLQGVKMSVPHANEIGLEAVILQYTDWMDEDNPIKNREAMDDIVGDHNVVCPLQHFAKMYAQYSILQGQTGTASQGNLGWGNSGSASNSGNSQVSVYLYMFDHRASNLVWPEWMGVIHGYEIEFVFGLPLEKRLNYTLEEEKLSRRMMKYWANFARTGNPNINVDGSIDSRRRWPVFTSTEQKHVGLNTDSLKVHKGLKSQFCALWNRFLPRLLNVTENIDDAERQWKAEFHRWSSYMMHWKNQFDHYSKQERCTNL
T1 sequence (O42275 24-633): as above

The term IC50 denotes the concentration that gives 50% inhibition. Turning to `C=C(C)[C@@H]1CC[C@]2(C(=O)O)CC[C@]3(C)[C@H](CC[C@@H]4[C@@]5(C)[C@@H](C(=O)O)[C@H](O)C(C)(C)[C@@H]5CC[C@]43C)[C@@H]12` [Compound 1, Ceanothic acid], the “% Displacement of Propidium Iodide (Mean ± SEM)” value (“% Displacement … (Mean ± SEM)” below) at PAS of EeAChE amounted to 24.24 ± 0.32%. The IC50 was 47.4 µM and 47 µM in test [1] (pH 8.0, average of triplicate); 47.4 µM in test [1] (pH 8.0, triplicate).
Regarding `C=C(C)[C@@H]1CC[C@]2(C(=O)O)CC[C@]3(C)[C@H](CC[C@@H]4[C@@]5(C)[C@@H](C(=O)O)C(=O)C(C)(C)[C@@H]5CC[C@]43C)[C@@H]12` [Compound 2, 3-oxo-Ceanothic Acid], at PAS of EeAChE, the “% Displacement … (Mean ± SEM)” value was found to be 28.71 ± 0.99%. Besides, in test [2], the Vmax came out at 0.0032, the α is 1.01 and the type of inhibition entry is recorded as “noncompetitive inhibitors”. For the same molecule, the 50% inhibitory concentration (IC50) in test [1] (pH 8.0, average of triplicate) is 5.28 µM and 5.3 µM. Further, the concentration for half-maximal inhibition (IC50) in test [1] (pH 8.0, triplicate) is 5.28 µM.
Regarding `C=C(C)[C@@H]1CC[C@]2(C(=O)OC)CC[C@]3(C)[C@H](CC[C@@H]4[C@@]5(C)[C@@H](C(=O)OC)[C@H](O)C(C)(C)[C@@H]5CC[C@]43C)[C@@H]12` [Compound 3, Ceanothic 2, 28-Dimethyl Ester], the “% Displacement … (Mean ± SEM)” value at PAS of EeAChE turned out to be 27.01 ± 0.59%. Besides, in test [2], the Vmax turned out to be 0.0133, the α is 2.98 and the type of inhibition result is “mixed inhibitors”. In addition, the half-inhibitory concentration (IC50) in test [1] (pH 8.0, average of triplicate) was 14.4 µM and 14 µM. Further, inhibition in test [1] (pH 8.0, triplicate) was half-maximal at 14.4 µM (IC50).
For the molecule `C=C(C)[C@@H]1CC[C@]2(C(=O)O)CC[C@]3(C)[C@H](CC[C@@H]4[C@@]5(C)[C@@H](C(=O)O)[C@H](OCCCCBr)C(C)(C)[C@@H]5CC[C@]43C)[C@@H]12` [Compound 6, 3-(4-Bromobutoxy)-ceanothic Acid], at PAS of EeAChE, the “% Displacement … (Mean ± SEM)” value was determined as 31.51 ± 1.38%. In addition, in test [2], the Vmax turned out to be 0.0086, the α is 0.98 and the type of inhibition result was “noncompetitive inhibitors”. Besides, in test [1] (pH 8.0, average of triplicate), the IC50 was 8.4 µM and 8 µM. The IC50 in test [1] (pH 8.0, triplicate) is 8.4 µM.
Turning to `C=C(C)[C@@H]1CC[C@]2(C(=O)O)CC[C@]3(C)[C@H](CC[C@@H]4[C@@]5(C)[C@@H](C(=O)O)[C@H](OC(=O)c6ccco6)C(C)(C)[C@@H]5CC[C@]43C)[C@@H]12` [Compound 7, 3-O-Furoyl-ceanothic Acid], the “% Displacement … (Mean ± SEM)” value at PAS of EeAChE was found to be 28.50 ± 2.55%. Besides, in test [2], the Vmax was 0.0205, the α is 10.39 and the type of inhibition entry was “mixed inhibitors; also recorded: mixed-competitive-type inhibitor”. Moreover, the IC50 in test [1] (pH 8.0, average of triplicate) was 17.9 µM and 18 µM. In test [1] (pH 8.0, triplicate), this molecule had an IC50 of 17.9 µM.
